Data taken from US20180360799A1, “Nitrofuran Derivatives That Induce Apoptosis in Breast Cancer Cells by Activating Protein Expression” (Oklahoma Medical Research Foundation, priority 2015, published 2018).

How the values were obtained:
Assay type in all cases: cell-based, human
[1] = test system: caspase-3; assay: Caspase-3 cleavage by Western blotting in HCC-1806 cells; details: HCC-1806, 10 μM, at 8 h and 24 h
Protocol: FIG. 2A is an image showing apoptosis of HCC-1806 cells after treatment with a 5-nitrofuran-2-amide derivative compound 3d (above). Cells were treated with 3d (10 μM) for the indicated times, and cleavage of caspase-3 was determined by Western blotting. α-Tubulin was used as a loading control. The data shown are representative of 3 independent studies. FIGS. 2B and 2C are live-cell phase-contrast images (magnification 10×) showing treatment with DMSO and (10 μM) 5-nitrofuran-2-amide derivative compound 3d respectively for 24 h. To determine whether the reduction in TNBC cell viability by the 5-nitrofuran-2-amide derivatives was due to the induction of apoptosis, the inventor analyzed cleavage of caspase-3, a critical executioner of apoptosis, in HCC-1806 cells treated with compound 3d. […] To confirm this, HCC-1806 cells were cultured to near confluence and treated with 10 μM 3d or DMSO for 24 h and then imaged by live-cell phase-contrast microscopy.
HCC-1806 cells were seeded in 60-mm dishes at 8×10^5 cells/dish and treated for the indicated times. Cells were then washed with PBS and lysed with lysis buffer (Cell Signaling Technology, Danvers, Mass., US) containing EDTA and phosphatase inhibitors. Aliquots of 20 μg total protein were separated on 7% SDS-PAGE gels (Life Technologies, Carlsbad, Calif., US) and transferred to PVDF membranes. […]

[2] = test system: CHOP gene; assay: CHOP mRNA by qRT-PCR in HCC-1806 cells
Protocol: The results are the means of 4 replicate wells and are representative of 3 independent studies. *P<0.05 and **P<0.01 by Student's t-test compared with cells treated with DMSO (in FIG. 3A) or with 3d for 0 h (in FIG. 3B). […] The results are the means of 4 replicate wells and are representative of 3 independent studies. *P<0.05 and **P<0.01 by Student's t-test compared with cells treated with compound 3d for 0 h. […] Total RNA was extracted using TRIzol reagent (Invitrogen, Carlsbad, Calif.) according to the manufacturer's protocol, and 2 μg of total RNA was reverse transcribed using a Superscript kit (Invitrogen). Real-time PCR was performed in 96-well format using SYBR Select Master Mix (Applied Biosystems, Foster City, Calif.) with an ABI 7500 PCR system (Applied Biosystems). The primer sequences used were: Human CHOP: SEQ ID NO: 1 [NT] and SEQ ID NO: 2 [NT]. Human ATF4: SEQ ID NO: 3 [NT] and SEQ ID NO: 4 [NT]. Human XBP1: SEQ ID NO: 5 [NT] and SEQ ID NO: 6 [NT]. Human Cyclophilin A: SEQ ID NO: 7 [NT] and SEQ ID NO: 8 [NT]. Human GAPDH: SEQ ID NO: 9 [NT] and SEQ ID NO: 10 [NT].

[3] = test system: XBP1 mRNA splicing (IRE1α pathway); assay: XBP1 mRNA splicing by RT-PCR in HCC-1806 cells; details: HCC-1806, 3d 10 μM, at 2~24 h (11% at 0 h)
Protocol: FIG. 3E is a graph showing XBP1 mRNA levels in HCC-1806 cells treated with tunicamycin or a 5-nitrofuran-2-amide derivative compound 3d. HCC-1806 cells were treated with compound 3d (10 μM) or tunicamycin (Tm, 1 μg/mL) for the indicated times. XBP1 mRNA levels were analyzed by RT-PCR and the products were resolved by agarose gel electrophoresis. The full-length (unspliced, XBP1u) and spliced (XBP1s) forms of XBP1 mRNA are indicated. GAPDH mRNA was used as an internal control.
The percentage of XBP1s relative to total XBP1 was calculated as: (XBP1s/[XBP1s+XBP1u])×100%. The data shown are representative of 3 independent studies.
The inventor next asked whether the IRE1α and ATF6 branches of the unfolded protein response were also activated by compound 3d treatment of TNBC cells. […] XBP1 mRNA splicing, as measured by XBP1s levels, increased only slightly in the first 24 h after compound 3d treatment of HCC-1806 cells (from 11% of total XBP1 at 0 h to 15˜20% at 2˜24 h). […] Next, it was determined whether compound 3d activates the ATF6 pathway by evaluating its effect on the activity of an ER stress response elements (ERSE)-Luc reporter stably established in HEK293 cell line. […]

SMILES: CC1CCN(c2ccc(NC(=O)c3ccc([N+](=O)[O-])o3)cc2)CC1 [Compound 3d]
- cleavage of caspase-3 [1]: increased cleavage of caspase-3 protein levels
- CHOP transcription, time dependence ([2]; HCC-1806, 10 μM, indicated times): increased CHOP transcription in a time-dependent fashion
- CHOP mRNA levels relative to DMSO-treated cells ([2]; HCC-1806, dose- and time-dependent studies): up to 9 fold
- CHOP mRNA levels, dose dependence ([2]; HCC-1806, indicated concentrations, 8 h): significantly increased CHOP mRNA levels in a dose-dependent manner
- XBP1s, percentage of total XBP1 [3]: 15˜20%
